# From patent US6303591A, “21-hydroxy-6,19-oxidoprogesterone (21OH-6OP) and its use as medicament for treating excess of glucocorticoids” (Applied Research Systems ARS Holding NV, priority 1997, dated 2001)
# pKd: −log10 of the molar value. Entries after “also recorded” stand apart in the source; their conditions may differ.
# Tests used:
# [1] = target: T1, GR from rat thymus (thymus cytosol) (Rattus norvegicus, UniProt P06536); experiment: displacement of (^3 H)-B binding to GR, rat thymus cytosol
# T1 construct: Thymuses were used as a source of GR; from tissue; host or cells: thymus cytosol, adrenalectomized male Sprague-Dawley rats
# T1 sequence (P06536 1-795): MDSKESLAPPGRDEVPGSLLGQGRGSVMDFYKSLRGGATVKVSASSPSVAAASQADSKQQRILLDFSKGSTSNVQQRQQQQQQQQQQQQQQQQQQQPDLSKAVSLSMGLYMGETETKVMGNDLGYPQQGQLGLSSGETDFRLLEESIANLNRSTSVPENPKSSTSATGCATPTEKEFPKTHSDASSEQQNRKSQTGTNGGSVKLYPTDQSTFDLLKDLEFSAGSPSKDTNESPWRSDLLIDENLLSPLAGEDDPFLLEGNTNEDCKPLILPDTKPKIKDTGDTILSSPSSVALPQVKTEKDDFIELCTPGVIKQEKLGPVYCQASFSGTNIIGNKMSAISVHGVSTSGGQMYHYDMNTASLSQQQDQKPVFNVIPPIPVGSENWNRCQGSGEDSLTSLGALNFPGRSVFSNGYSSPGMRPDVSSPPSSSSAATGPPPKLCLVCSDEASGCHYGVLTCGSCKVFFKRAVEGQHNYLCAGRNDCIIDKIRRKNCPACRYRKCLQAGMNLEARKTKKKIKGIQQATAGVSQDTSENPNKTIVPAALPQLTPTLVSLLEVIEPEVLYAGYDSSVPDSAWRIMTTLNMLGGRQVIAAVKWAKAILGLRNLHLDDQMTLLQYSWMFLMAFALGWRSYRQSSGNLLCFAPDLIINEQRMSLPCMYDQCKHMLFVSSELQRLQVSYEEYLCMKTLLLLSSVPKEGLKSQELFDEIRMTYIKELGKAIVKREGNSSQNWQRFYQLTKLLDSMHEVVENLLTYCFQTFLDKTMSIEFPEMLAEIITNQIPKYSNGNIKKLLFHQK
# Protocol: Binding Assay: Adrenalectomized male Sprague-Dawley rats were bled to death by heart puncture. Cold 0.9% NaCI was injected profusely through the aorta until organs were completely blanched. Thymuses were used as a source of GR and kidneys as a source of MR. Homogenization and incubation conditions were performed as previously described, (14) and (15), respectively. Briefly, homogenates performed in cold TEGM buffer at pH 7.4 (0.1 M Tris-HCl, 10 mM EDTA, 10 mM α-mercaptoethanol, 20 mM Na2 MoO4, 25% glycerol, 0.1 mM PMSF, 2.0 TIU/ml aprotinin and 1 mg% Leupeptin) were centrifuged at 37,000 rev. for 30 min at 0° C. Supernatants from this centrifugation are referred to as "cytosol". […] (^3 H)-P4 binding to uterus PR was assayed on immature female rats according to Jordan et al (16).
# The displacement curve of 6,19-oxidoprogesterone is included for comparative purposes.
# [2] = test system: tyrosine aminotransferase (TAT) induction in rat hepatocytes; experiment: TAT induction in rat hepatocytes (agonism); format: cell-based; details: FIGS. 3-B and 4 (hatched bars), no agonist added
# Protocol: FIG. 3: Biological Properties of 21OH-6OP: A) Glycogen storage in vivo: 100 μg steroid/100 g body weight of male rats were injected as indicated in Example 1. Liver glycogen was purified and quantified with Krisman's reagent (17). Controls were injected with vehicle. Results are expressed as means±SEM (n=6). (*): different from controls P<0.02. B) TAT induction in vitro: rat hepatocytes were incubated for 5 h in HAM-F12 medium in the presence of 100 nM steroid and TAT activity was measured. Results are expressed as percentage of enzyme activity (means±SEM, n=4) over controls incubated in the presence of vehicle. (*) different from controls P<0.01. C) Sodium-retaining activity: adrenalectomized rats were treated with the indicated dose of steroids. Results are expressed as the ratio of sodium-excretion rates of steroid-injected animals to the excretion rates of rats injected with vehicle.
# Hatched bars represent incubations performed in the presence of vehicle instead of agonist.
# Bioassay : Liver glycogen deposition was measured on adrenalectoniized male Sprague-Dawley rats (180-220 g) as follows: steroids were dissolved in ethanol/propylene glycol/0.9% NaCl solution (3:3:34) and 100 μg steroid/l00 g body weight were injected i.m. the previous night. On the morning of the experiment this dose was reinjected intraperitoneally. Three hours later the rats were killed by cervical dislocation and livers were immediately removed. Glycogen purification and quantification were carried out according to Krisman's method (17). Na^+ -retaining properties were measured as described (5). Tyrosine aminotransferase (TAT) was induced in rat hepatocytes isolated by the procedure of Fry et al (18). TAT activity was determined according to Granner and Tomkins (19).
# The basal TAT activity in hepatocytes, denominated control in the figure, was measured by adding vehicle (final concentration: 0.2% ethanol) to the culture. […] 2.5 μM 21OH-6OP inhibits 80% of TAT induction when concubated with B or DXM.
smiles,measurement,setting,value
"C[C@]12CC[C@H]3[C@@H](C[C@H]4OC[C@@]35CCC(=O)C=C45)[C@@H]1CC[C@@H]2C(=O)CO [21OH-6OP, 21-hydroxy-6,19-oxidoprogesterone]","increase of binding to GR by 21-hydroxyl, relative to 6OP",[1]; 21OH-6OP vs 6OP,over 40 times
same,saturation predicted according to mass action,"[1]; FIG. 2 a, predicted",95%
same,tracer displacement,"[1]; FIG. 2 a, 720 min",75%
same,pKd,"[1]; rat thymus cytosol, 5 nM (^3 H)-B, 12 h at 0° C., read-out: RBA for GR (Kd)",6.90
same,TAT induction (in words),[2],neither 6OP nor 21OH-6OP evoke these responses; also recorded: Neither 6OP nor 21OH-6OP facilitate TAT induction
